Data taken from ChEMBL document CHEMBL1150084, “Two Benzylated Dihydroflavonols from Cudrania tricuspidata” (1995).
Converted amounts (≈) assume the structure as drawn.

How the values were obtained:
Format in all cases: functional
[1] = test system: LOX IMVI; test: Cytotoxicity against human LOXIMVI cells after 48 hrs by SRB assay; conditions: read-out: ED50 (the source's name)
[2] = test system: MOLT-4F; test: Cytotoxicity against human MOLT4F cells after 48 hrs by SRB assay; conditions: read-out: ED50 (the source's name)
[3] = test system: UO-31; test: Cytotoxicity against human UO31 cells after 48 hrs by SRB assay; conditions: UO-31, 48 h, read-out: ED50 (the source's name)
[4] = test system: KM12; test: Cytotoxicity against human KM12 cells after 48 hrs by SRB assay; conditions: KM12, 48 h, read-out: ED50 (the source's name)
[5] = Cytotoxicity against human CRL1579 cells after 48 hrs by SRB assay; conditions: read-out: ED50 (the source's name)

SMILES	EC50 [1]	EC50 [2]	EC50 [3]	EC50 [4]	EC50 [5]
COc1cccc2c1C(=O)c1c(O)c3c(c(O)c1C2=O)C[C@@](O)(C(=O)CO)C[C@@H]3O[C@H]1C[C@H](N)[C@H](O)[C@H](C)O1 [DOXORUBICIN]	0.13 µg/mL (≈ 0.239 µM)	0.02 µg/mL (≈ 0.0368 µM)	0.3 µg/mL (≈ 0.552 µM)	0.11 µg/mL (≈ 0.202 µM)	0.16 µg/mL (≈ 0.294 µM)
O=C1c2c(O)c(Cc3ccc(O)cc3)c(O)c(Cc3ccc(O)cc3)c2O[C@H](c2ccc(O)cc2)[C@H]1O [GERICUDRANIN D]	16.6 µg/mL (≈ 33.2 µM)	8.9 µg/mL (≈ 17.8 µM)	5.2 µg/mL (≈ 10.4 µM)	5 µg/mL (≈ 9.99 µM)	9.5 µg/mL (≈ 19 µM)
O=C1c2c(cc(O)c(Cc3ccc(O)cc3)c2O)O[C@H](c2ccc(O)cc2)[C@H]1O [GERICUDRANIN E]	12.5 µg/mL (≈ 31.7 µM)	10.7 µg/mL (≈ 27.1 µM)	7.6 µg/mL (≈ 19.3 µM)	11.9 µg/mL (≈ 30.2 µM)	2.9 µg/mL (≈ 7.35 µM)
